Source: publication PMC7419507, “In vitro Cas9-assisted editing of modular polyketide synthase genes to produce desired natural product derivatives” (Nature Communications, 2020)
Where “and” joins values, the source holds several entries; their conditions need not be identical. Equal values may be shown once.

Legend:
FKBP12 and mTOR = target: T1, FKBP12 and mTOR (Homo sapiens, UniProt P42345+P62942); assay: Fluoppi analysis: induction of FKBP12-mTOR complex formation in transfected HeLa cells; assay type: cell-based; conditions: raw data, one replicate per line
T1 construct: host or cells: HeLa cells
T1 sequence (P42345 2025-2114 limits assumed): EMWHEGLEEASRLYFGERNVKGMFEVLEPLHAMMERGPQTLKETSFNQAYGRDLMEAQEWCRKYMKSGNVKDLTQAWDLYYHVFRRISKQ
T1 sequence (P62942 whole entry): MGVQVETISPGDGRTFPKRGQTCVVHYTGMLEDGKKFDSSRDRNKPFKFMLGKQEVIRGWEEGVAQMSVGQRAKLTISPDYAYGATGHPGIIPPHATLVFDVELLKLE
Experimental: Fluoppi harbours a tetrameric fluorescent protein hAG tag and an oligomeric assembly helper Ash tag to create detectable fluorescent foci in cells when there are interactions between two proteins fused to each tag[32].
HeLa cells were maintained in DMEM (Fujifilm Wako, Osaka, Japan) supplemented with 10% FBS (Thermo Fisher Scientific, MA, USA) and 1% of Penicillin-Streptomycin (Thermo Fisher Scientific) in a humidified incubator with 5% CO2 at 37 °C. Harvested cells were plated at 1 × 10^6 cells/well in 6-well plate and incubated for 6 h. Then each 1.25 µg of phAG-mTOR and pAsh-FKBP12 (Medical and Biological Laboratories Co., Ltd., Aichi, Japan) was co-transfected with Lipofectamine 2000 reagent (Thermo Fisher Scientific) overnight. Next day, transfected cells were harvested and seeded in 384-well optical-bottom microplate (PerkinElmer, MA, USA) at a density of 3000 cells/well. After the 24 h incubation at 37 °C, cells were treated with different concentrations of compounds for 1 h. Cells were then fixed with 4% paraformaldehyde and stained with 1 µg/ml of Hoechst33342 (Thermo Fisher Scientific). Cell images of 9 visual fields/well were acquired with ×20 objective lens in Opera Phenix High-Content Screening System (PerkinElmer) and analysed by Harmony4.9 software (PerkinElmer). Because protein-protein interactions are quantified by measuring the aggregation of fluorescent elements in foci, fluorescent intensity in foci was normalised by total fluorescent intensity in each cell. EC50 values were calculated using TIBCO Spotfire 10.3 software (PerkinElmer).

[1] = test system: human ovarian adenocarcinoma SKOV-3 cells; assay: Cytotoxicity assay (CellTiter-Glo, 72 h), SKOV-3; assay type: cell-based; conditions: raw replicate data
Experimental: (§1) Jurkat cells were cultured in RPMI1640 medium supplemented with 10% foetal bovine serum, penicillin (50 U/ml), streptomycin (50 μg/ml), and Glutamax. SKOV-3 cells were cultured in DMEM medium supplemented with 10% fetal bovine serum, penicillin (50 U/ml), and streptomycin (50 μg/ml). MESO-1 cells were cultured in RPMI1640 medium supplemented with 10% fetal bovine serum, penicillin (50 U/ml), and streptomycin (50 μg/ml). All cell lines were seeded in a 384-well plate at a density of 1000 cells/well in 20 μl of media and incubated at 37 °C in a humidified incubator with 5% CO2. After 4 h, 2-fold dilution samples resolved in DMSO were added to the cell culture at the concentration of 0.5% (0.1 μl) and incubated for 72 h. Cell viabilities were measured using a CellTiter-Glo luminescent cell viability assay and EnVision multilabel plate reader.

[2] = Cytotoxicity assay (CellTiter-Glo, 72 h), SKOV-3; assay type: cell-based, human; conditions: human, SKOV-3 cells (ovarian adenocarcinoma)
Experimental: as §1

With `CO[C@H]1C[C@@H]2CC[C@@H](C)[C@@](O)(O2)C(=O)C(=O)N2CCCC[C@H]2C(=O)O[C@H]([C@H](C)C[C@@H]2CC[C@@H](O)[C@H](OC)C2)CC(=O)[C@H](C)/C=C(\C)[C@@H](O)[C@@H](OC)C(=O)[C@H](C)C[C@H](C)/C=C/C=C/C=C/1C` [Compound 1, rapamycin, reference compound] the Foci intensity (FKBP12 and mTOR; conc 9.53674e-5 uM) was 0.01161 and 0.0103 and 0.03088, the Foci intensity (FKBP12 and mTOR; conc 0.000190735 uM) was 0.00895 and 0.02271 and 0.02107 and the Foci intensity (FKBP12 and mTOR; conc 0.00038147 uM) was 0.01544 and 0.008548 and 0.02969. The Foci intensity (FKBP12 and mTOR; conc 0.000762939 uM) was 0.009653 and 0.01526 and 0.05621, the Foci intensity (FKBP12 and mTOR; conc 0.00152588 uM) was 0.01804 and 0.005306 and 0.005698 and the Foci intensity (FKBP12 and mTOR; conc 0.00305176 uM) was 0.0369 and 0.03402 and 0.3176. The Foci intensity (FKBP12 and mTOR; conc 0.00610352 uM) was 0.06499 and 0.06076 and 0.02459, the Foci intensity (FKBP12 and mTOR; conc 0.012207 uM) was 0.2364 and 0.2753 and 0.5339 and the Foci intensity (FKBP12 and mTOR; conc 0.0244141 uM) was 0.345 and 0.3003 and 0.3827. The Foci intensity (FKBP12 and mTOR; conc 0.0488281 uM) was 0.3632 and 0.2888 and 0.4741, the Foci intensity (FKBP12 and mTOR; conc 0.0976562 uM) was 0.3612 and 0.3367 and 0.3536 and the Foci intensity (FKBP12 and mTOR; conc 0.195312 uM) was 0.3566 and 0.4014 and 0.5261. The Foci intensity (FKBP12 and mTOR; conc 0.390625 uM) was 0.3241 and 0.3575 and 0.3236, the Foci intensity (FKBP12 and mTOR; conc 0.78125 uM) was 0.4221 and 0.4622 and 0.4598 and the Foci intensity (FKBP12 and mTOR; conc 1.5625 uM) was 0.3074 and 0.3503 and 0.4064. For the same compound, the Foci intensity (FKBP12 and mTOR; conc 3.125 uM) was 0.4223 and 0.3831 and 0.4233, the Foci intensity (FKBP12 and mTOR; conc 6.25 uM) was 0.3328 and 0.3828 and 0.4116 and the Foci intensity (FKBP12 and mTOR; conc 12.5 uM) was 0.2834 and 0.3194 and 0.3771. The Foci intensity (FKBP12 and mTOR; conc 25 uM) was 0.3113 and 0.345 and 0.3681, the Foci intensity (FKBP12 and mTOR; conc 50 uM) was 0.2989 and 0.4553 and 0.5427 and the “SKOV3 viability (%)” value ([1]; conc 9.53674e-5 uM) was 85.5% and 83.5%. The “SKOV3 viability (%)” value ([1]; conc 0.000190735 uM) was 77.8%, the “SKOV3 viability (%)” value ([1]; conc 0.00038147 uM) was 76.1% and 77.6% and the “SKOV3 viability (%)” value ([1]; conc 0.000762939 uM) was 63.5% and 66.3%. The “SKOV3 viability (%)” value ([1]; conc 0.00152588 uM) was 104.6% and 106.1%, the “SKOV3 viability (%)” value ([1]; conc 0.00305176 uM) was 68.3% and 63.8% and the “SKOV3 viability (%)” value ([1]; conc 0.00610352 uM) was 65.9%. For the same compound, the “SKOV3 viability (%)” value ([1]; conc 0.012207 uM) was 65.2% and 58.2%, the “SKOV3 viability (%)” value ([1]; conc 0.0244141 uM) was 61.9% and 60.6% and the “SKOV3 viability (%)” value ([1]; conc 0.0488281 uM) was 65.4% and 58.1%. The “SKOV3 viability (%)” value ([1]; conc 0.0976562 uM) was 60.9% and 62.0%, the “SKOV3 viability (%)” value ([1]; conc 0.195312 uM) was 60.7% and 56.3% and the “SKOV3 viability (%)” value ([1]; conc 0.390625 uM) was 59.9% and 61.0%. For the same compound, the “SKOV3 viability (%)” value ([1]; conc 0.78125 uM) was 54.1% and 58.4%, the “SKOV3 viability (%)” value ([1]; conc 1.5625 uM) was 63.0% and the “SKOV3 viability (%)” value ([1]; conc 3.125 uM) was 54.7%. For the same compound, the “SKOV3 viability (%)” value ([1]; conc 6.25 uM) was 63.2%, the “SKOV3 viability (%)” value ([1]; conc 12.5 uM) was 56.9% and the “SKOV3 viability (%)” value ([1]; conc 25 uM) was 55.5%. The “SKOV3 viability (%)” value ([1]; conc 50 uM) was 16.3% and 24.9% and 9.3%, the viability at 72 h ([2]; SKOV-3 cells, 72 h, read-out: Plateau level of cell viability in the dose-response curve) was about 60% and the viability at 72 h, 9.53674e-05 uM ([2]; conc 9.53674e-5 uM, raw replicate data, read-out: SKOV3 viability (%)) was 78.7%. It also gave a viability at 72 h, 0.000190735 uM ([2]; conc 0.000190735 uM, raw replicate data, read-out: SKOV3 viability (%)) of 70.9%, a viability at 72 h, 0.00038147 uM ([2]; conc 0.00038147 uM, raw replicate data, read-out: SKOV3 viability (%)) of 75.1% and a viability at 72 h, 0.000762939 uM ([2]; conc 0.000762939 uM, raw replicate data, read-out: SKOV3 viability (%)) of 62.9%. For the same compound, the viability at 72 h, 0.00152588 uM ([2]; conc 0.00152588 uM, raw replicate data, read-out: SKOV3 viability (%)) was 110%, the viability at 72 h, 0.00305176 uM ([2]; conc 0.00305176 uM, raw replicate data, read-out: SKOV3 viability (%)) was 70.7% and the viability at 72 h, 0.00610352 uM ([2]; conc 0.00610352 uM, raw replicate data, read-out: SKOV3 viability (%)) was 64.7%. It also gave a viability at 72 h, 0.012207 uM ([2]; conc 0.012207 uM, raw replicate data, read-out: SKOV3 viability (%)) of 59.4% and a viability at 72 h, 0.0244141 uM ([2]; conc 0.0244141 uM, raw replicate data, read-out: SKOV3 viability (%)) of 57.9%.
